Experimental data: patent publication US11845760B2, “PRMT5 inhibitors” (AMGEN INC., priority 2020, dated 2023)
Where two headings read alike, the source gives them in different places.

Tests used:
HCT116 WT cells = test: HCT116 WT cell line proliferation (CellTiter-Glo cell viability, 6 days); type: cell-based; details: HCT116 WT (parent) cells, 6 days of treatment, CellTiter-Glo cell viability, read-out: HCT-116 WT IC50
Outline: (§1)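 Viability by CellTiter-Glo after 6 days' drug exposure in wild-type HCT116 and its MTAP-null knockout, with DMSO-only control. Dosing used either 1:3 steps (top 1 or 10 μM) or 22 points in 1:2 steps (top 10 or 50 μM). IC50 taken where the fitted curve crosses 50% of control.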

HCT116 MTAP null cells = test: HCT116 MTAP null cell line proliferation (CellTiter-Glo cell viability, 6 days); type: cell-based; details: HCT116 MTAP null cells, 6 days of treatment, CellTiter-Glo cell viability, read-out: HCT-116 MTAP null IC50
Outline: as §1

Nc1nc2ccc(C(=O)N3CCOC[C@@H]3c3ccc(C(F)(F)F)cc3)cc2n2ccnc12 [Example 403, (4-aminoimidazo[1,2-a]quinoxalin-8-yl)((3S)-3-(4-(trifluoromethyl)phenyl)-4-morpholinyl)methanone]
IC50 (HCT116 WT cells; Homo sapiens, HCT-116, 144 h): 673 nM | IC50 (HCT116 MTAP null cells; HCT116-MTAP null, 144 h): 765 nM

Nc1nc2cnc(C(=O)N3CCOC[C@@H]3c3ccc(C(F)(F)F)cc3)cc2c2c1CCO2 [Example 404, (4-amino-2,3-dihydrofuro[3,2-c][1,7]naphthyridin-8-yl)((3S)-3-(4-(trifluoromethyl)phenyl)-4-morpholinyl)methanone]
IC50 (HCT116 WT cells; Homo sapiens, HCT-116, 144 h): 9760 nM | IC50 (HCT116 MTAP null cells; HCT116-MTAP null, 144 h): 872 nM

Cc1n[nH]c2c1c(N)nc1ccc(C(=O)N3CCOC[C@@H]3c3ccc(C(F)(F)F)cc3)cc12 [Example 405, (4-amino-3-methyl-1H-pyrazolo[4,3-d]quinolin-8-yl)((3S)-3-(4-(trifluoromethyl)phenyl)-4-morpholinyl)methanone]
IC50 (HCT116 WT cells; Homo sapiens, HCT-116, 144 h): 2700 nM | IC50 (HCT116 MTAP null cells; HCT116-MTAP null, 144 h): 181 nM

Cc1n[nH]c2c1c(N)nc1cnc(C(=O)N3CCOC[C@@H]3c3ccc(C(F)(F)F)cc3)cc12 [Example 406, (4-amino-3-methyl-1H-pyrazolo[4,3-c][1,7]naphthyridin-8-yl)((3S)-3-(4-(trifluoromethyl)phenyl)-4-morpholinyl)methanone]
IC50 (HCT116 WT cells; Homo sapiens, HCT-116, 144 h): 5640 nM | IC50 (HCT116 MTAP null cells; HCT116-MTAP null, 144 h): 155 nM

Nc1nc2cc(F)c(C(=O)N3CCOC[C@@H]3c3ccc(C(F)(F)F)cc3)cc2c2c1CCO2 [Example 407, (4-amino-7-fluoro-2,3-dihydrofuro[3,2-c]quinolin-8-yl)((3S)-3-(4-(trifluoromethyl)phenyl)-4-morpholinyl)methanone]
IC50 (HCT116 WT cells; Homo sapiens, HCT-116, 144 h): 4210 nM | IC50 (HCT116 MTAP null cells; HCT116-MTAP null, 144 h): 416 nM

Cn1ncc2c(N)nc3ccc(C(=O)N4CC(c5ccc(C(F)(F)F)cc5)C4)cc3c21 [Example 408, (4-amino-1-methyl-1H-pyrazolo[4,3-c]quinolin-8-yl)(3-(4-(trifluoromethyl)phenyl)-1-azetidinyl)methanone]
IC50 (HCT116 WT cells; Homo sapiens, HCT-116, 144 h): 6360 nM | IC50 (HCT116 MTAP null cells; HCT116-MTAP null, 144 h): 118 nM

Cn1ncc2c(N)nc3ccc(C(=O)N4CCOC[C@@H]4c4ccc(C(F)(F)C(F)(F)F)cc4)cc3c21 [Example 409, (4-amino-1-methyl-1H-pyrazolo[4,3-c]quinolin-8-yl)((3S)-3-(4-(pentafluoroethyl)phenyl)-4-morpholinyl)methanone]
IC50 (HCT116 WT cells; Homo sapiens, HCT-116, 144 h): 1670 nM | IC50 (HCT116 MTAP null cells; HCT116-MTAP null, 144 h): 29 nM

Cn1ncc2c(N)nc3cnc(C(=O)N4CCOC[C@@H]4c4ccc(C(F)(F)C(F)(F)F)cc4)cc3c21 [Example 410, (4-amino-1-methyl-1H-pyrazolo[4,3-c][1,7]naphthyridin-8-yl)((3S)-3-(4-(pentafluoroethyl)phenyl)-4-morpholinyl)methanone]
IC50 (HCT116 WT cells; Homo sapiens, HCT-116, 144 h): 444 nM | IC50 (HCT116 MTAP null cells; HCT116-MTAP null, 144 h): 15 nM

Cn1ncc2c(N)nc3cc(F)c(C(=O)N4CCOC[C@@H]4c4ccc(C(F)(F)C(F)(F)F)cc4)cc3c21 [Example 411, (4-amino-7-fluoro-1-methyl-1H-pyrazolo[4,3-c]quinolin-8-yl)((3S)-3-(4-(pentafluoroethyl)phenyl)-4-morpholinyl)methanone]
IC50 (HCT116 WT cells; Homo sapiens, HCT-116, 144 h): 352 nM | IC50 (HCT116 MTAP null cells; HCT116-MTAP null, 144 h): 8 nM

Cc1cc2nc(N)c3cnn(C)c3c2cc1C(=O)N1CCOC[C@@H]1c1ccc(C(F)(F)F)cc1 [Example 413, (4-amino-1,7-dimethyl-1H-pyrazolo[4,3-c]quinolin-8-yl)((3S)-3-(4-(trifluoromethyl)phenyl)-4-morpholinyl)methanone]
IC50 (HCT116 WT cells; Homo sapiens, HCT-116, 144 h): 413 nM | IC50 (HCT116 MTAP null cells; HCT116-MTAP null, 144 h): 22 nM

Cc1cc2nc(N)c3c(cnn3C)c2cc1C(=O)N1CCOC[C@@H]1c1ccc(C(F)(F)F)cc1 [Example 414, (4-amino-3,7-dimethyl-3H-pyrazolo[3,4-c]quinolin-8-yl)((3S)-3-(4-(trifluoromethyl)phenyl)-4-morpholinyl)methanone]
IC50 (HCT116 WT cells; Homo sapiens, HCT-116, 144 h): 2800 nM | IC50 (HCT116 MTAP null cells; HCT116-MTAP null, 144 h): 56 nM

Cc1nc2nc(N)c3cnn(C)c3c2cc1C(=O)N1CCOC[C@@H]1c1ccc(C(F)(F)F)cc1 [Example 415, (4-amino-1,7-dimethyl-1H-pyrazolo[4,3-c][1,8]naphthyridin-8-yl)((3S)-3-(4-(trifluoromethyl)phenyl)-4-morpholinyl)methanone]
IC50 (HCT116 WT cells; Homo sapiens, HCT-116, 144 h): 3340 nM | IC50 (HCT116 MTAP null cells; HCT116-MTAP null, 144 h): 73 nM

C[C@H]1OCc2c1c(N)nc1ccc(C(=O)N3CCOC[C@@H]3c3ccc(S(F)(F)(F)(F)F)cc3)cc21 [Example 416, ((3R)-4-amino-3-methyl-1,3-dihydrofuro[3,4-c]quinolin-8-yl)((3S)-3-(4-(pentafluoro-lambda~6~-sulfanyl)phenyl)-4-morpholinyl)methanone]
IC50 (HCT116 WT cells; Homo sapiens, HCT-116, 144 h): 867 nM | IC50 (HCT116 MTAP null cells; HCT116-MTAP null, 144 h): 33 nM

C[C@H]1OCc2c1c(N)nc1cnc(C(=O)N3CCOC[C@@H]3c3ccc(S(F)(F)(F)(F)F)cc3)cc21 [Example 417, ((3R)-4-amino-3-methyl-1,3-dihydrofuro[3,4-c][1,7]naphthyridin-8-yl)((3S)-3-(4-(pentafluoro-lambda~6~-sulfanyl)phenyl)-4-morpholinyl)methanone]
IC50 (HCT116 WT cells; Homo sapiens, HCT-116, 144 h): 523 nM | IC50 (HCT116 MTAP null cells; HCT116-MTAP null, 144 h): 17 nM

Nc1nc2cc(Cl)c(C(=O)N3CCOC[C@@H]3c3ccc(S(F)(F)(F)(F)F)cc3)cc2c2c1COC2 [Example 418, (4-amino-7-chloro-1,3-dihydrofuro[3,4-c]quinolin-8-yl)((3S)-3-(4-(pentafluoro-lambda~6~-sulfanyl)phenyl)-4-morpholinyl)methanone]
IC50 (HCT116 WT cells; Homo sapiens, HCT-116, 144 h): 243 nM | IC50 (HCT116 MTAP null cells; HCT116-MTAP null, 144 h): 10 nM

Cn1ncc2c3cc(C(=O)N4CCOC[C@@H]4c4ccc(S(F)(F)(F)(F)F)cc4)c(Cl)cc3nc(N)c21 [Example 419, (4-amino-7-chloro-3-methyl-3H-pyrazolo[3,4-c]quinolin-8-yl)((3S)-3-(4-(pentafluoro-lambda~6~-sulfanyl)phenyl)-4-morpholinyl)methanone]
IC50 (HCT116 WT cells; Homo sapiens, HCT-116, 144 h): 548 nM | IC50 (HCT116 MTAP null cells; HCT116-MTAP null, 144 h): 23 nM

Cn1ncc2c(N)nc3cc(F)c(C(=O)N4CCOC[C@@H]4c4ccc(C(F)(F)F)cc4)cc3c21 [Example 420, (4-amino-7-fluoro-1-methyl-1H-pyrazolo[4,3-c]quinolin-8-yl)((3S)-3-(4-(trifluoromethyl)phenyl)-4-morpholinyl)methanone]
IC50 (HCT116 WT cells; Homo sapiens, HCT-116, 144 h): 338 nM | IC50 (HCT116 MTAP null cells; HCT116-MTAP null, 144 h): 12 nM

C[C@H]1OCc2c1c(N)nc1ccc(C(=O)N3CC(c4ccc(C(F)(F)F)cn4)C3)cc21 [Example 421, ((3R)-4-amino-3-methyl-1,3-dihydrofuro[3,4-c]quinolin-8-yl)(3-(5-(trifluoromethyl)-2-pyridinyl)-1-azetidinyl)methanone]
IC50 (HCT116 WT cells; Homo sapiens, HCT-116, 144 h): > 50000 nM | IC50 (HCT116 MTAP null cells; HCT116-MTAP null, 144 h): 914 nM

Nc1nc2cc(F)c(C(=O)N3CC(c4ccc(C(F)(F)F)cc4)C3)cc2c2c1COC2 [Example 422]
IC50 (HCT116 WT cells): 12500 nM | IC50 (HCT116 MTAP null cells): 633 nM

Nc1nc2cc(F)c(C(=O)N3CC(c4ccc(C(F)(F)F)cn4)C3)cc2c2c1COC2 [Example 423, (4-amino-7-fluoro-1,3-dihydrofuro[3,4-c]quinolin-8-yl)(3-(5-(trifluoromethyl)-2-pyridinyl)-1-azetidinyl)methanone]
IC50 (HCT116 WT cells; Homo sapiens, HCT-116, 144 h): 33300 nM | IC50 (HCT116 MTAP null cells; HCT116-MTAP null, 144 h): 653 nM

Cn1ncc2c(N)nc3ccc(C(=O)N4CC[C@H](c5ccc(C(F)(F)F)cc5)C4)cc3c21 [Example 425, (4-amino-1-methyl-1H-pyrazolo[4,3-c]quinolin-8-yl)((3R)-3-(4-(trifluoromethyl)phenyl)-1-pyrrolidinyl)methanone]
IC50 (HCT116 WT cells; Homo sapiens, HCT-116, 144 h): 4400 nM | IC50 (HCT116 MTAP null cells; HCT116-MTAP null, 144 h): 147 nM

Cn1ncc2c(N)nc3cnc(C(=O)N4CC[C@H](c5ccc(C(F)(F)F)cc5)C4)cc3c21 [Example 426, (4-amino-1-methyl-1H-pyrazolo[4,3-c][1,7]naphthyridin-8-yl)((3R)-3-(4-(trifluoromethyl)phenyl)-1-pyrrolidinyl)methanone]
IC50 (HCT116 WT cells; Homo sapiens, HCT-116, 144 h): 4760 nM | IC50 (HCT116 MTAP null cells; HCT116-MTAP null, 144 h): 97 nM

Cn1ncc2c(N)nc3cc(F)c(C(=O)N4CC(c5ccc(C(F)(F)F)cc5)C4)cc3c21 [Example 427, (4-amino-7-fluoro-1-methyl-1H-pyrazolo[4,3-c]quinolin-8-yl)(3-(4-(trifluoromethyl)phenyl)-1-azetidinyl)methanone]
IC50 (HCT116 WT cells; Homo sapiens, HCT-116, 144 h): 2540 nM | IC50 (HCT116 MTAP null cells; HCT116-MTAP null, 144 h): 40 nM

Cn1ncc2c(N)nc3cc(F)c(C(=O)N4CC(c5ccc(C(F)(F)F)cn5)C4)cc3c21 [Example 428, (4-amino-7-fluoro-1-methyl-1H-pyrazolo[4,3-c]quinolin-8-yl)(3-(5-(trifluoromethyl)-2-pyridinyl)-1-azetidinyl)methanone]
IC50 (HCT116 WT cells; Homo sapiens, HCT-116, 144 h): 8400 nM | IC50 (HCT116 MTAP null cells; HCT116-MTAP null, 144 h): 74 nM

Nc1nc2cc(F)c(C(=O)N3CC(O)(c4ccc(C(F)(F)F)cc4)C3)cc2c2c1COC2 [Example 429, (4-amino-7-fluoro-1,3-dihydrofuro[3,4-c]quinolin-8-yl)(3-hydroxy-3-(4-(trifluoromethyl)phenyl)-1-azetidinyl)methanone]
IC50 (HCT116 WT cells; Homo sapiens, HCT-116, 144 h): 20600 nM | IC50 (HCT116 MTAP null cells; HCT116-MTAP null, 144 h): 382 nM

Nc1nc2cc(Cl)c(C(=O)N3CC(c4ccc(C(F)(F)F)cc4)C3)cc2c2c1COC2 [Example 430, (4-amino-7-chloro-1,3-dihydrofuro[3,4-c]quinolin-8-yl)(3-(4-(trifluoromethyl)phenyl)-1-azetidinyl)methanone]
IC50 (HCT116 WT cells; Homo sapiens, HCT-116, 144 h): 12600 nM | IC50 (HCT116 MTAP null cells; HCT116-MTAP null, 144 h): 445 nM

C[C@H]1OCc2c1c(N)nc1ccc(C(=O)N3CC[C@](O)(c4ccc(C(F)(F)F)cc4)C3)cc21 [Example 435, ((3R)-4-amino-3-methyl-1,3-dihydrofuro[3,4-c]quinolin-8-yl)((3S)-3-hydroxy-3-(4-(trifluoromethyl)phenyl)-1-pyrrolidinyl)methanone]
IC50 (HCT116 WT cells; Homo sapiens, HCT-116, 144 h): 3760 nM | IC50 (HCT116 MTAP null cells; HCT116-MTAP null, 144 h): 251 nM

Cn1ncc2c(N)nc3cc(F)c(C(=O)N4CC[C@H](c5ccc(C(F)(F)F)cc5)C4)cc3c21 [Example 436, (4-amino-7-fluoro-1-methyl-1H-pyrazolo[4,3-c]quinolin-8-yl)((3R)-3-(4-(trifluoromethyl)phenyl)-1-pyrrolidinyl)methanone]
IC50 (HCT116 WT cells; Homo sapiens, HCT-116, 144 h): 1720 nM | IC50 (HCT116 MTAP null cells; HCT116-MTAP null, 144 h): 29 nM
